Where only a bound is given, the exact number is not on record here.

Format in all cases: cell-based
Experiment [1] has as its target T1, SMARCA2 (Homo sapiens, UniProt P51531). Kind of experiment: SMARCA2 degradation in NCI-H838 cells by Western blot. Set-up: endogenous in cells; host or cells: NCI-H838 (ATCC CRL-5844). As to conditions: 16 hours. The procedure: Determination of SMARCA2 Degradation in NCI-1H838 Cells by Western Blot:
NCI-1H838 (ATCC CRL-5844) was plated in 6 well plates using complete RPMI-1640 media. Next day, compounds of present invention were added to cells from 10 mM stocks made in DMSO (Sigma Cat no. D2650). Each concentration of compound was tested with DMSO concentration not exceeding a final percentage of 0.3 in the cells. Cells were incubated with the compound for 16 hours followed by harvesting with 1× RIPA lysis buffer (Thermo Fischer, catalogue number #89900) containing protease inhibitor cocktail (Sigma catalogue number #P-8340). Equal amount of protein was loaded on SIDS PAGE gel for electrophoresis. Western blot was carried out for detection of SMARCA2 with antibody (Cell signaling technologies, catalogue number #11966). Beta Actin (Santa Cruz, catalogue number #69879) was used as loading control. Percentage of SMARCA2 degradation was calculated using formula % degradation=100−(normalized band intensity in treated sample/normalized band intensity in DMSO sample)*100”.
Selected compounds of the present invention were screened in the above mentioned assay procedures for determination of % SMARCA2 degradation at 100 nM and the results are summarized in below table 31.
A general note: In western blotting, separated proteins are transferred to a membrane and probed.

Another experiment has as its system NCI-H838 cells. The experiment in a line: Anti proliferative activity in NCI-H838 cell line by Cell Titer Glo assay. As to conditions: Homo sapiens, 192 h, 8 days compound incubation, CellTiter Glo, read-out: Anti-proliferative activity IC50 group (NCI-H838 cells). The protocol: Determination of Anti Proliferative Activity of Compounds in NCI-H929 and NCI-H838 Cell Lines by Cell Titer Glo® (promega) assay:
NCI-H929 (ATCC CRL-9068) or NCI-H838 (ATCC CRL-5844) cells were seeded in 96 well plate flat black clear bottom plates (Corning, Cat. No 3904) using complete RPMI-1640 media. Next day, compounds listed in the present invention were added to cells from 10 mM stocks made in DMSO (Sigma Cat no. D2650). Each concentration of compound was tested in triplicate with DMSO concentration at a final percentage not exceeding 0.3 in the cells. After the compound incubation (3 days for H929 and 8 days for H838) assay was terminated using 50 μl of CellTiter Glo® reagent (Promega, Cat. no G7572). CellTiter Glo® Luminescent reagent determines the number of viable cells based on quantitation of ATP present which is an indicator of cell number and metabolic activity. Luminescence readings were taken in Victor-3 instrument. Percent inhibition of proliferation was calculated using formula, % inhibition=100−(luminescence value of test/luminescence value of DMSO control)*100. DMSO control (0%)=Cells in complete media with DMSO; blank=Media alone containing DMSO. IC50 was calculated using graph pad prism software.
Herein group “A” refers to IC50 value lower than 1 μM, “B” refers to IC50 value between 1-10 μM (both inclusive) and “C” refers to IC50 value higher than 10 μM or less than 50% activity at 10 μM.
Background: In ATP-based viability assays light output follows the ATP content of the culture.

Another experiment has as its system NCI-H929 cells. The experiment in a line: Anti proliferative activity in NCI-H929 cell line by Cell Titer Glo assay. As to conditions: Homo sapiens, 72 h, 3 days compound incubation, CellTiter Glo, read-out: Anti-proliferative activity IC50 group (NCI-H929 cells). The essentials: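 Cells seeded in complete RPMI-1640 and exposed next day to compounds in triplicate (DMSO ≤0.3% final) for 3 days (H929) or 8 days (H838). Viability by CellTiter-Glo ATP luminescence; % inhibition relative to DMSO control, IC50 from dose-response fit.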

The target in the next experiment is T2, SMARCA4 (Homo sapiens, UniProt P51532).
T2 construct: endogenous in cells; host or cells: NCI-H929 (ATCC CRL-9068)
T2 sequence (P51532 whole entry): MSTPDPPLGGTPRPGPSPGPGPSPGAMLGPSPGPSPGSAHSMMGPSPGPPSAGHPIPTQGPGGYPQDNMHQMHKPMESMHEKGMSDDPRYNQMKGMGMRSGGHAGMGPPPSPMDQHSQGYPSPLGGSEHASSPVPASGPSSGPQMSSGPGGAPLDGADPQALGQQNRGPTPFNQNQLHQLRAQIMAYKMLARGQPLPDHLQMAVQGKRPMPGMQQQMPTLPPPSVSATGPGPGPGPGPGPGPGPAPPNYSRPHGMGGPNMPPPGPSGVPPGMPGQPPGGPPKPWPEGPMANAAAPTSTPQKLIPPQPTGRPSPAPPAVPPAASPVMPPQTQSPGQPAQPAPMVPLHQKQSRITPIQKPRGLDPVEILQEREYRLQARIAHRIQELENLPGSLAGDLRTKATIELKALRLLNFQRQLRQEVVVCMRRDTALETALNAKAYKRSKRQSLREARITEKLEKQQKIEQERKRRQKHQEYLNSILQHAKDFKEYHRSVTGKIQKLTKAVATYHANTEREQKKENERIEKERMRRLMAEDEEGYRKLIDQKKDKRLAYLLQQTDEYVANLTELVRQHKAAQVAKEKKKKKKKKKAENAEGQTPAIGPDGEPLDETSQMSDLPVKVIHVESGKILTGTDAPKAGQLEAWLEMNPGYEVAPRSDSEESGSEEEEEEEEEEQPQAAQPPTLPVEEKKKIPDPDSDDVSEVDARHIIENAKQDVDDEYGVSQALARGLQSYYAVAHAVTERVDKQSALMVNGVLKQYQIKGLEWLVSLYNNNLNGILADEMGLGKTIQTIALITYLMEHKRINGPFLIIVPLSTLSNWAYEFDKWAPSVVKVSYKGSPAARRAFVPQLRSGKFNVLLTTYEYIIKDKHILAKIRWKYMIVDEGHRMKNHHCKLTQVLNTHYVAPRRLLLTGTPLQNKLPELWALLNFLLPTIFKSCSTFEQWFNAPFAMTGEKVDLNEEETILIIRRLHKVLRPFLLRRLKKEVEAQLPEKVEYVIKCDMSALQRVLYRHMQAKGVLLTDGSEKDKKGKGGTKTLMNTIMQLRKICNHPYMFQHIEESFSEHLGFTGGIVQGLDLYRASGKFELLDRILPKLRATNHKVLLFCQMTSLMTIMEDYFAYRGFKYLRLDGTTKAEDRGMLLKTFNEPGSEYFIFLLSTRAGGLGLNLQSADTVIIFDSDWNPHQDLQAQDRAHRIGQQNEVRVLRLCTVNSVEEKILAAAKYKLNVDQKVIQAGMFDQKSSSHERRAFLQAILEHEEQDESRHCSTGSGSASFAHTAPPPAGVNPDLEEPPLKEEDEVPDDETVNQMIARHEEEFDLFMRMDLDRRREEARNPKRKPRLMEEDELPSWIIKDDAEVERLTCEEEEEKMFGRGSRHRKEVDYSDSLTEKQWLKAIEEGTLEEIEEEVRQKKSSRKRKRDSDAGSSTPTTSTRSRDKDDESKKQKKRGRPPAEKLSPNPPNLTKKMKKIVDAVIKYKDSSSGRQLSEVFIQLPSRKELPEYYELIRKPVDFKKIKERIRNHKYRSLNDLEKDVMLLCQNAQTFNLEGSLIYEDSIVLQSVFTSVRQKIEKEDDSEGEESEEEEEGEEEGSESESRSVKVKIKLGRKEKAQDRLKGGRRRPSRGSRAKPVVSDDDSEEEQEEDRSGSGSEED
The experiment in a line: SMARCA4 degradation in H929 cells by Western blot. As to conditions: NCI-H929, 100 nM, 16 hours. The protocol:
(§1) Determination of SMARCA2 and SMARCA4 Degradation in H929 Cells by Western Blot:
(§2) NCI-H929 (ATCC CRL-9068) was plated in 6 well plates using complete RPMI-1640 media. Next day, compounds of present invention were added to cells from 10 mM stocks made in DMSO (Sigma Cat no. D2650). Each concentration of compound was tested with DMSO not exceeding final percentage of 0.3 in the cells. Cells were incubated with the compound for 16 hours followed by harvesting with 1× RIPA lysis buffer (Thermo Fischer, catalogue number #89900) containing protease inhibitor cocktail (Sigma catalogue number #P-8340). Equal amount of protein was loaded on SDS PAGE gel for electrophoresis. Western blot was carried out for detection of either SMARCA2 (Cell signaling technologies, catalogue number #11966) or SMARCA4 antibody (Cell signaling technologies, catalogue number #49360). Beta Actin (Santa Cruz, catalogue number #69879) was used as loading control. Percentage of SMARCA2 or SMARCA4 degradation was calculated using formula % Degradation=100−(normalized band intensity in treated sample/normalized band intensity in DMSO sample)*100.
(§3) Selected compounds of the present invention were screened in the above mentioned assay procedures for determination of % SMARCA2 and SMARCA4 degradation 100 nM and the results are summarized in below table 30.

Experiment [2] addresses T1, SMARCA2. Kind of experiment: SMARCA2 degradation in H929 cells by Western blot. Further details: endogenous in cells. As to conditions: 16 hours. The procedure:
as §1, §2, §3

T1 sequence (P51531 whole entry): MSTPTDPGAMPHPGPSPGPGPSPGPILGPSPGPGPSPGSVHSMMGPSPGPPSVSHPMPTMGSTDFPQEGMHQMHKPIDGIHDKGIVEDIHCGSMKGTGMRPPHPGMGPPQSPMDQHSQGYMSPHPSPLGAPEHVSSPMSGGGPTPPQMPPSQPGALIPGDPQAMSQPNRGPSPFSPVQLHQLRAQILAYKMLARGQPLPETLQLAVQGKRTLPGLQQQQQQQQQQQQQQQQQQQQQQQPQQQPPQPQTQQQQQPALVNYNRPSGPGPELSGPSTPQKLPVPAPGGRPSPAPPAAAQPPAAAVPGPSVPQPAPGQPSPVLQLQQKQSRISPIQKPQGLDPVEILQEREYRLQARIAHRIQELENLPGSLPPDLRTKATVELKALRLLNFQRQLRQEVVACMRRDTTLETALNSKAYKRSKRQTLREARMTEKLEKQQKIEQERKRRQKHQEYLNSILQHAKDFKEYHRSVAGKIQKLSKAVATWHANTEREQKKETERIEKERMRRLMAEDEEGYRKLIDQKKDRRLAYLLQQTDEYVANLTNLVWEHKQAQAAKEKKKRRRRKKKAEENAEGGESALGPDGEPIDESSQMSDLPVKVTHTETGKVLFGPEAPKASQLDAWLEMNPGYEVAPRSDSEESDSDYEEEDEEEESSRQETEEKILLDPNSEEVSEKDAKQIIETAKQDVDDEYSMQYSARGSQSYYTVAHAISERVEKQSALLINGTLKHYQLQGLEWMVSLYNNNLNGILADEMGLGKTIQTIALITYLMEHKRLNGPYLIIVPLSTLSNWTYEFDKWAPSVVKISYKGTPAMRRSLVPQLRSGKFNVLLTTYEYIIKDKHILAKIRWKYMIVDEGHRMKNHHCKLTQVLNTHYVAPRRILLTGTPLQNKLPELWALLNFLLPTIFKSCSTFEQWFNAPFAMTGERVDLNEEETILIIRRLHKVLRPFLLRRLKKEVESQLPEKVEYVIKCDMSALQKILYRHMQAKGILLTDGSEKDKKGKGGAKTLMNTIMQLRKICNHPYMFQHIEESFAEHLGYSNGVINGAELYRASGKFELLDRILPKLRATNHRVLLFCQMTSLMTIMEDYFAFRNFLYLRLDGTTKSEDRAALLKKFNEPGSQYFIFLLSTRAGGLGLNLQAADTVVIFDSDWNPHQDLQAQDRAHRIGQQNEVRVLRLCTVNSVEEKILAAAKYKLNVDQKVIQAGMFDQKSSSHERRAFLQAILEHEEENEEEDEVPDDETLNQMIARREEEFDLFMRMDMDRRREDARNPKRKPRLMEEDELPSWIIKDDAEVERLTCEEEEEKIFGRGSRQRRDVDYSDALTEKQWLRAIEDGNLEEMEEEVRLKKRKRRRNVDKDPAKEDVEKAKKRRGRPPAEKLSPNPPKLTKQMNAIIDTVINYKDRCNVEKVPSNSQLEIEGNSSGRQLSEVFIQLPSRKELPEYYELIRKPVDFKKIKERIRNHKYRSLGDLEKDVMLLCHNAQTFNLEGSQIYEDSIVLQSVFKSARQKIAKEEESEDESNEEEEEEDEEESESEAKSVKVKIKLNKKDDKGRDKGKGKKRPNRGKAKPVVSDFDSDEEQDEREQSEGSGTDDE

For orientation: IC50 means the concentration that gives 50% inhibition. Take `Cc1ncsc1-c1ccc([C@H](C)NC(=O)[C@@H]2C[C@@H](O)CN2C(=O)[C@@H](NC(=O)C=C2CCN(c3cc(-c4ccccc4O)nnc3N)CC2)C(C)(C)C)cc1` [Compound 103]: the “SMARCA2 @ 100 nM (% SMARCA2 degradation)” value at SMARCA2 [1] was found to be 64%. Also, the IC50 with NCI-H838 cells was below 1000 nM.
For `Cc1ncsc1-c1ccc([C@H](C)NC(=O)[C@@H]2C[C@@H](O)CN2C(=O)[C@@H](NC(=O)CN2CCN(c3cc(-c4c(O)ccc(F)c4F)nnc3N)CC2)C(C)(C)C)cc1` [Compound 96], the “SMARCA2 @ 100 nM (% SMARCA2 degradation)” value on SMARCA2 [1] came out at 76%. For the same compound, the IC50 in the experiment on NCI-H838 cells is below 1000 nM.
As to `Cc1ncsc1-c1ccc([C@H](C)NC(=O)[C@@H]2C[C@@H](O)CN2C(=O)[C@@H](NC(=O)CN2CCC(c3cc(-c4ccccc4O)nnc3N)CC2)C(C)(C)C)cc1` [Compound 81], the IC50 in the experiment on NCI-H929 cells and with NCI-H838 cells was below 1000 nM throughout. The “SMARCA2 @ 100 nM (% SMARCA2 degradation)” value at SMARCA2 [1] came to 34%.
For `Cc1cccc(-c2cc(N3CCN(CC(=O)N[C@H](C(=O)N4C[C@H](O)C[C@H]4C(=O)N[C@@H](C)c4ccc(-c5scnc5C)cc4)C(C)(C)C)CC3)c(N)nn2)c1O` [Compound 91], the “SMARCA2 @ 100 nM (% SMARCA2 degradation)” value on SMARCA2 [1] was 82%. Further, the concentration for half-maximal inhibition (IC50) in the experiment with NCI-H838 cells was below 1000 nM.
`CO[C@@H]1C[C@@H](C(=O)N[C@@H](C)c2ccc(-c3scnc3C)cc2)N(C(=O)[C@@H](NC(=O)CN2CCN(c3cc(-c4ccccc4O)nnc3N)CC2)C(C)(C)C)C1` [Compound 117] showed an SMARCA4 percent degradation at 0.1 µM on SMARCA4 of 47%. Besides, the IC50 in the experiment with NCI-H929 cells was in the range of 1000 to 10000 nM. Besides, at SMARCA2 [2], the “SMARCA2 Percent degradation @ 100 nM” value was found to be 45.4%.
Turning to `Cc1ncsc1-c1ccc([C@H](C)NC(=O)[C@@H]2C[C@@H](O)CN2C(=O)[C@@H](NC(=O)CN2CC=C(c3cc(-c4ccccc4O)nnc3N)CC2)C(C)(C)C)cc1` [Compound 82], the IC50 with NCI-H929 cells and in the experiment on NCI-H838 cells was below 1000 nM in each case. Further, on SMARCA2 [1], the “SMARCA2 @ 100 nM (% SMARCA2 degradation)” value stood at 61%.
Consider `Cc1ncsc1-c1ccc([C@H](C)NC(=O)[C@@H]2C[C@@H](O)CN2C(=O)[C@@H](NC(=O)CCCCCCCCC(=O)N2CCN(c3cc(-c4ccccc4O)nnc3N)CC2)C(C)(C)C)cc1` [Compound 109], for which the SMARCA4 percent degradation at 0.1 µM at SMARCA4 is 38%. The concentration for half-maximal inhibition (IC50) in the experiment on NCI-H929 cells was below 1000 nM. Moreover, the “SMARCA2 Percent degradation @ 100 nM” value on SMARCA2 [2] is 100%.
As for `Cc1ncsc1-c1ccc([C@H](C)NC(=O)[C@@H]2C[C@@H](O)CN2C(=O)[C@@H](NC(=O)CC2(O)CCN(c3cc(-c4ccccc4O)nnc3N)CC2)C(C)(C)C)cc1` [Compound 55, (2S,4R)-1-((S)-2-(2-(1-(3-amino-6-(2-hydroxyphenyl)pyridazin-4-yl)-4-hydroxypiperidin-4-yl)acetamido)-3,3-dimethylbutanoyl)-4-hydroxy-N—((S)-1-(4-(4-methylthiazol-5-yl)phenyl)ethyl)pyrrolidine-2-carboxamide], the IC50 in the experiment on NCI-H929 cells and in the experiment on NCI-H838 cells was below 1000 nM each time.
In the case of `Cc1ncsc1-c1ccc([C@H](C)NC(=O)[C@@H]2C[C@@H](O)CN2C(=O)[C@@H](NC(=O)CN2CCN(c3cc(-c4cc(F)ccc4O)nnc3N)CC2)C(C)(C)C)cc1` [Compound 63, (2S,4R)-1-((S)-2-(2-(4-(3-amino-6-(5-fluoro-2-hydroxyphenyl)pyridazin-4-yl)piperazin-1-yl)acetamido)-3,3-dimethylbutanoyl)-4-hydroxy-N—((S)-1-(4-(4-methylthiazol-5-yl)phenyl)ethyl)pyrrolidine-2-carboxamide], the “SMARCA2 @ 100 nM (% SMARCA2 degradation)” value at SMARCA2 [1] is recorded as 94%. In addition, the IC50 with NCI-H838 cells was below 1000 nM.
As for `Cc1ncsc1-c1ccc([C@H](C)NC(=O)[C@@H]2C[C@@H](O)CN2C(=O)[C@@H](NC(=O)CC2CCN(c3cc(-c4ccccc4O)nnc3N)CC2)C(C)(C)C)cc1` [Compound 51, (2S,4R)-1-((S)-2-(2-(1-(3-amino-6-(2-hydroxyphenyl)pyridazin-4-yl)piperidin-4-yl)acetamido)-3,3-dimethylbutanoyl)-4-hydroxy-N—((S)-1-(4-(4-methylthiazol-5-yl)phenyl)ethyl)pyrrolidine-2-carboxamide], the SMARCA4 percent degradation at 0.1 µM on SMARCA4 worked out at 99%. For the same compound, the IC50 in the experiment on NCI-H929 cells and in the experiment with NCI-H838 cells was below 1000 nM in each case. Besides, the “SMARCA2 @ 100 nM (% SMARCA2 degradation)” value on SMARCA2 [1] amounted to 99%.
At SMARCA4, `Cc1ncsc1-c1ccc([C@H](C)NC(=O)[C@@H]2C[C@@H](O)CN2C(=O)[C@@H](NC(=O)CN2CCN(c3cc(-c4ccccc4O)nnc3N)CC2)C(C)C)cc1` [Compound 79, (2S,4R)-1-((2-(4-(3-amino-6-(2-hydroxyphenyl)pyridazin-4-yl)piperazin-1-yl)acetyl)-L-valyl)-4-hydroxy-N—((S)-1-(4-(4-methylthiazol-5-yl)phenyl)ethyl)pyrrolidine-2-carboxamide] came in with an SMARCA4 percent degradation at 0.1 µM of 99%. In the experiment on NCI-H929 cells, the 50% inhibitory concentration (IC50) is below 1000 nM. In addition, on SMARCA2 [2], the “SMARCA2 Percent degradation @ 100 nM” value was 99%.
On to `Cc1ncsc1-c1ccc([C@H](C)NC(=O)[C@@H]2C[C@@H](O)CN2C(=O)[C@@H](NC(=O)CN2C3CCC2CN(c2cc(-c4ccccc4O)nnc2N)C3)C(C)(C)C)cc1` [Compound 61, (2S,4R)-1-((2S)-2-(2-(3-(3-amino-6-(2-hydroxyphenyl)pyridazin-4-yl)-3,8-diazabicyclo[3.2.1]octan-8-yl)acetamido)-3,3-dimethylbutanoyl)-4-hydroxy-N—((S)-1-(4-(4-methylthiazol-5-yl)phenyl)ethyl)pyrrolidine-2-carboxamide], for which the “SMARCA2 @ 100 nM (% SMARCA2 degradation)” value at SMARCA2 [1] stood at 35%. Besides, in the experiment with NCI-H838 cells, the 50% inhibitory concentration (IC50) is below 1000 nM.
On SMARCA4, `Cc1ncsc1-c1ccc([C@H](C)NC(=O)[C@@H]2C[C@@H](O)CN2C(=O)[C@@H](NC(=O)C(C)(C)N2CCN(c3cc(-c4ccccc4O)nnc3N)CC2)C(C)(C)C)cc1` [Compound 87] came in with an SMARCA4 percent degradation at 0.1 µM of 93%. Further, the IC50 with NCI-H929 cells was below 1000 nM. Also, the “SMARCA2 Percent degradation @ 100 nM” value at SMARCA2 [2] amounted to 83%.
Take `Cc1ncsc1-c1ccc([C@H](C)NC(=O)[C@@H]2C[C@@H](O)CN2C(=O)[C@@H](NC(=O)C(C)C2CCN(c3cc(-c4cccc(F)c4O)nnc3N)CC2)C(C)(C)C)cc1` (single isomer, unassigned) [Compound 83]: the “SMARCA2 @ 100 nM (% SMARCA2 degradation)” value at SMARCA2 [1] was found to be 7%. For the same compound, the “SMARCA2 Percent degradation @ 100 nM” value on SMARCA2 [2] came out at 100%. Also, the IC50 in the experiment on NCI-H838 cells was below 1000 nM.
At SMARCA4, `Cc1ncsc1-c1ccc([C@H](C)NC(=O)[C@@H]2C[C@@H](O)CN2C(=O)[C@@H](NC(=O)CCCCCCCCCC(=O)N2CCN(c3cc(-c4ccccc4O)nnc3N)CC2)C(C)(C)C)cc1` [Compound 38] displayed an SMARCA4 percent degradation at 0.1 µM of 17%. Further, the IC50 in the experiment with NCI-H929 cells was in the range of 1000 to 10000 nM. Moreover, the “SMARCA2 Percent degradation @ 100 nM” value at SMARCA2 [2] is reported as 99%.

Values taken from patent US12371426B2, “Pyridazine derivatives as SMARCA2/4 degraders” (Aurigene Discovery Technologies Limited, priority 2018, dated 2025).
